Results taken from paper PMC7503981, “Plant Nitrilase Homologues in Fungi: Phylogenetic and Functional Analysis with Focus on Nitrilases in Trametes versicolor and Agaricus bisporus” (Molecules, 2020).

Tests used:
NitTv1 = biological target: T1, NitTv1 (Trametes versicolor, UniProt P9WEU6); test: spectrophotometric ammonia assay; […] substrate; type: biochemical; details: read-out: Substrate β-CA / Vmax [U mg^-1 rotein)] KM (mM) / NLase Activity ^2; NLase (Asp + ammonia forming) activity; no asparaginase added for NLase activity; 50 mM Tris/HCl, 150 mM NaCl, pH 8.0, 30 °C
T1 construct: gene nit; catalytic tetrad E46, K133, E140, C178

NitAb = tested on: T2, NitAb; test: spectrophotometric ammonia assay; […] substrate; type: biochemical, Agaricus bisporus; details: NLase (Asp + ammonia forming) activity; no asparaginase added for NLase activity; 50 mM Tris/HCl, 150 mM NaCl, pH 8.0, 30 °C; read-out: Substrate β-CA / Vmax [U mg^-1 rotein)] KM (mM) / NLase Activity ^2
T2 construct: catalytic tetrad E45, K157, E164, C195

T1 sequence (P9WEU6 whole entry): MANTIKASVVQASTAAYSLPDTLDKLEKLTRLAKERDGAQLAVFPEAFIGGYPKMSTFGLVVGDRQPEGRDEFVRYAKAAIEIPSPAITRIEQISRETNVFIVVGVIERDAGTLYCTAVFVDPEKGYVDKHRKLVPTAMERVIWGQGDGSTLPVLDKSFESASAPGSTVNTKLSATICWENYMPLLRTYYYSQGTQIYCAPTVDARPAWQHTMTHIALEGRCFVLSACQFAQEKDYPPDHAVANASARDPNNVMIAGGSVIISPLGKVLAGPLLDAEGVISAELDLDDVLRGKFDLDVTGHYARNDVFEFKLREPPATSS

Question: With `N#CC[C@H](N)C(=O)O` [β-CA, β-cyano-L-alanine] as the molecule, how does the Km (NitTv1) read?
Answer: 7.72 ± 1.82 mM

Question: What about the Km (NitAb) of the same molecule?
Answer: 7.38 ± 1.4 mM
